One test deals with Plasmopara viticola. The test can be described thus: Test Example G: Downy mildew on vine. The following applies: 250 ppm drug solution sprayed (2.5 ml/pot), grape Neomuscat, 7 to 10 days after inoculation.
In another test the test system is Botrytis cinerea. Kind of test: Test Example B: Gray mold on tomato. The following applies: 250 ppm drug solution sprayed on test plant.
The subject of another test is Alternaia brassicicola. Kind of test: Test Example C: Alternaria sooty spot on cabbage. The test is classed as in vivo. The following applies: 250 ppm drug solution sprayed on test plant. The source says:
Seeds of a test plant (cabbage variety: Shikidori) were planted and cultivated until the cotyledons extended.
<Control Value> Control value=100{1−(n/3)}

Test [1] deals with Blumeria graminis f. sp. hordei. The test can be described thus: Test Example D: Powdery mildew on barley. The following applies: 250 ppm drug solution sprayed on test plant.
The test system of another test is Phytophthora infestans. The test can be described thus: whole plant or invertebrate. The class given is in vivo. The following applies: 250 ppm drug solution sprayed on test plant.
The next test has as its system Magnaporthe grisea. The test can be described thus: whole plant or invertebrate. The class given is in vivo. The following applies: 250 ppm drug solution sprayed on test plant.
The test system of test [2] is Colletotrichum orbiculare. Kind of test: Test Example H: Anthracnose on cucumber. The following applies: 250 ppm drug solution sprayed (2.5 ml/pot), cucumber Sagami Hanjiro, 6 to 10 days after inoculation.
The next test deals with Puccinia recondita. The test can be described thus: Test Example E: Brown rust on wheat. The test is classed as in vivo. The following applies: 250 ppm drug solution sprayed on test plant.

For `CCn1c(-c2c(F)cc(F)cc2F)c(C=O)ccc1=O` [compound 449], in the test with Plasmopara viticola, the “Test G control value” is reported as “L (50% or less control value)”. The “Test B control value” with Botrytis cinerea is “H (more than 50% control value)”. In the test with Alternaia brassicicola, the “Test C control value” is “L (50% or less control value)”. For the same compound, the “Test D control value” in test [1] is given as “L (50% or less control value)”. Also, the “Test F control value” in the test on Phytophthora infestans was “L (50% or less control value)”. The “Test A control value” in the test on Magnaporthe grisea is recorded as “L (50% or less control value)”. The “Test H control value” in test [2] was “L (50% or less control value)”. For the same compound, the “Test E control value” with Puccinia recondita was “L (50% or less control value)”.
For `CC(C)C(C)(O)c1cc(Cl)c(=O)n(C)c1-c1c(F)cc(F)cc1F` (stereo not shown) [compound 450], the “Test G control value” with Plasmopara viticola is “H (more than 50% control value)”. Further, the “Test B control value” in the test with Botrytis cinerea is reported as “H (more than 50% control value)”. Moreover, the “Test C control value” with Alternaia brassicicola is on record as “H (more than 50% control value)”. The “Test D control value” in test [1] is recorded as “H (more than 50% control value)”. Moreover, the “Test F control value” with Phytophthora infestans is on record as “H (more than 50% control value)”. Moreover, the “Test A control value” in the test on Magnaporthe grisea is recorded as “H (more than 50% control value)”. In addition, the “Test H control value” in test [2] is “H (more than 50% control value)”. The “Test E control value” with Puccinia recondita is “H (more than 50% control value)”.
For the compound `CCOC(C)(c1cc(Cl)c(=O)n(C)c1-c1c(F)cc(F)cc1F)C(C)C` (stereo not shown) [compound 451], in the test with Plasmopara viticola, the “Test G control value” is on record as “L (50% or less control value)”. Moreover, the “Test B control value” with Botrytis cinerea is listed as “L (50% or less control value)”. The “Test C control value” in the test on Alternaia brassicicola was “L (50% or less control value)”. For the same compound, the “Test D control value” in test [1] was “H (more than 50% control value)”. For the same compound, the “Test F control value” in the test with Phytophthora infestans was “L (50% or less control value)”. Moreover, the “Test A control value” with Magnaporthe grisea was “H (more than 50% control value)”. Moreover, the “Test H control value” in test [2] is recorded as “L (50% or less control value)”. Also, in the test on Puccinia recondita, the “Test E control value” was “L (50% or less control value)”.
For the compound `COC(C)(c1cc(Cl)c(=O)n(C)c1-c1c(F)cc(F)cc1F)C(C)C` (stereo not shown) [compound 452], the “Test G control value” in the test on Plasmopara viticola is on record as “H (more than 50% control value)”. In addition, the “Test B control value” in the test on Botrytis cinerea is “H (more than 50% control value)”. In addition, the “Test C control value” in the test with Alternaia brassicicola is listed as “H (more than 50% control value)”. In addition, the “Test D control value” in test [1] is recorded as “H (more than 50% control value)”. Further, the “Test F control value” in the test with Phytophthora infestans is “L (50% or less control value)”. Further, the “Test A control value” in the test with Magnaporthe grisea is recorded as “H (more than 50% control value)”. Moreover, the “Test H control value” in test [2] is recorded as “H (more than 50% control value)”. In addition, in the test with Puccinia recondita, the “Test E control value” is recorded as “H (more than 50% control value)”.
With `CCn1c(-c2c(F)cc(F)cc2F)c(C(O)C(C)C)ccc1=O` (stereo not shown) [compound 453], the “Test G control value” with Plasmopara viticola is “H (more than 50% control value)”. The “Test B control value” in the test with Botrytis cinerea is “H (more than 50% control value)”. In addition, in the test on Alternaia brassicicola, the “Test C control value” is “H (more than 50% control value)”. Further, in test [1], the “Test D control value” is “H (more than 50% control value)”. Further, the “Test F control value” in the test with Phytophthora infestans is given as “L (50% or less control value)”. Moreover, in the test with Magnaporthe grisea, the “Test A control value” is listed as “L (50% or less control value)”. Also, the “Test H control value” in test [2] was “H (more than 50% control value)”. In addition, in the test with Puccinia recondita, the “Test E control value” is recorded as “H (more than 50% control value)”.
As to `CCn1c(-c2c(F)cc(F)cc2F)c(C(=O)C(C)C)ccc1=O` [compound 454], the “Test G control value” in the test with Plasmopara viticola is “L (50% or less control value)”. Besides, the “Test B control value” with Botrytis cinerea was “H (more than 50% control value)”. For the same compound, the “Test C control value” in the test on Alternaia brassicicola was “H (more than 50% control value)”. In test [1], the “Test D control value” is recorded as “H (more than 50% control value)”. In addition, in the test on Phytophthora infestans, the “Test F control value” is recorded as “L (50% or less control value)”. Further, the “Test A control value” in the test with Magnaporthe grisea is reported as “L (50% or less control value)”. For the same compound, in test [2], the “Test H control value” was “H (more than 50% control value)”. Also, the “Test E control value” with Puccinia recondita was “H (more than 50% control value)”.
As for `CCn1c(-c2c(F)cc(F)cc2F)c(C(C)(O)C(C)C)ccc1=O` (stereo not shown) [compound 455], in the test with Plasmopara viticola, the “Test G control value” is “H (more than 50% control value)”. For the same compound, the “Test B control value” with Botrytis cinerea is on record as “H (more than 50% control value)”. Further, the “Test C control value” in the test with Alternaia brassicicola is given as “H (more than 50% control value)”. In addition, the “Test D control value” in test [1] was “H (more than 50% control value)”. The “Test F control value” with Phytophthora infestans is on record as “L (50% or less control value)”. The “Test A control value” in the test on Magnaporthe grisea is “L (50% or less control value)”. In addition, the “Test H control value” in test [2] is “H (more than 50% control value)”. In addition, the “Test E control value” in the test with Puccinia recondita is listed as “H (more than 50% control value)”.
On to `CCCc1ccc(=O)n(CC)c1-c1c(F)cc(OCC)cc1F` [compound 456], for which, in the test with Plasmopara viticola, the “Test G control value” is reported as “H (more than 50% control value)”. The “Test B control value” with Botrytis cinerea was “H (more than 50% control value)”. Moreover, the “Test C control value” in the test on Alternaia brassicicola is given as “H (more than 50% control value)”. For the same compound, the “Test D control value” in test [1] is listed as “H (more than 50% control value)”. In the test on Phytophthora infestans, the “Test F control value” is “L (50% or less control value)”. Further, the “Test A control value” with Magnaporthe grisea is given as “H (more than 50% control value)”. For the same compound, in test [2], the “Test H control value” was “H (more than 50% control value)”. Also, in the test on Puccinia recondita, the “Test E control value” was “H (more than 50% control value)”.
Consider `CCCc1cc(Cl)c(=O)n(CC)c1-c1c(F)cc(OCC)cc1F` [compound 457], for which, in the test with Plasmopara viticola, the “Test G control value” was “L (50% or less control value)”. Besides, in the test on Botrytis cinerea, the “Test B control value” is “H (more than 50% control value)”. Further, the “Test C control value” in the test on Alternaia brassicicola is on record as “H (more than 50% control value)”. Moreover, the “Test D control value” in test [1] is given as “H (more than 50% control value)”. The “Test F control value” in the test on Phytophthora infestans is reported as “L (50% or less control value)”. Moreover, the “Test A control value” with Magnaporthe grisea is recorded as “H (more than 50% control value)”. Further, the “Test H control value” in test [2] was “H (more than 50% control value)”. Moreover, in the test on Puccinia recondita, the “Test E control value” was “H (more than 50% control value)”.
With `CCCc1cc(Br)c(=O)n(CC)c1-c1c(F)cc(OCC)cc1F` [compound 458], the “Test G control value” in the test with Plasmopara viticola is reported as “H (more than 50% control value)”. Moreover, the “Test B control value” in the test with Botrytis cinerea was “H (more than 50% control value)”. Further, the “Test C control value” with Alternaia brassicicola was “H (more than 50% control value)”. In addition, in test [1], the “Test D control value” was “H (more than 50% control value)”. Further, the “Test F control value” with Phytophthora infestans is reported as “L (50% or less control value)”. Besides, the “Test A control value” in the test on Magnaporthe grisea is “H (more than 50% control value)”. Further, the “Test H control value” in test [2] is listed as “H (more than 50% control value)”. For the same compound, the “Test E control value” in the test with Puccinia recondita is recorded as “H (more than 50% control value)”.
With `C#CCOc1cc(F)c(-c2c(CCC)ccc(=O)n2CC)c(F)c1` [compound 459], the “Test G control value” in the test with Plasmopara viticola was “H (more than 50% control value)”. Also, the “Test B control value” with Botrytis cinerea is reported as “H (more than 50% control value)”. Moreover, the “Test C control value” in the test on Alternaia brassicicola was “H (more than 50% control value)”. The “Test D control value” in test [1] is recorded as “H (more than 50% control value)”. The “Test F control value” in the test with Phytophthora infestans is listed as “L (50% or less control value)”. The “Test A control value” in the test with Magnaporthe grisea is “H (more than 50% control value)”. In addition, the “Test H control value” in test [2] was “H (more than 50% control value)”. Further, the “Test E control value” in the test with Puccinia recondita is on record as “H (more than 50% control value)”.
In the case of `CC#CCOc1cc(F)c(-c2c(CCC)ccc(=O)n2CC)c(F)c1` [compound 460], the “Test G control value” in the test with Plasmopara viticola is “H (more than 50% control value)”. For the same compound, the “Test B control value” in the test with Botrytis cinerea is “H (more than 50% control value)”. Further, the “Test C control value” in the test with Alternaia brassicicola is listed as “H (more than 50% control value)”. Besides, the “Test D control value” in test [1] is given as “H (more than 50% control value)”. Moreover, the “Test F control value” in the test with Phytophthora infestans is reported as “L (50% or less control value)”. For the same compound, the “Test A control value” in the test on Magnaporthe grisea is “H (more than 50% control value)”. For the same compound, in test [2], the “Test H control value” is reported as “H (more than 50% control value)”. Also, the “Test E control value” in the test with Puccinia recondita is on record as “H (more than 50% control value)”.
Regarding `CC#CCOc1cc(F)c(-c2c(CCC)cc(Cl)c(=O)n2CC)c(F)c1` [compound 461], the “Test G control value” with Plasmopara viticola is “H (more than 50% control value)”. In addition, the “Test B control value” in the test with Botrytis cinerea is “H (more than 50% control value)”. The “Test C control value” in the test on Alternaia brassicicola is “H (more than 50% control value)”. In addition, in test [1], the “Test D control value” is listed as “H (more than 50% control value)”. For the same compound, the “Test F control value” in the test with Phytophthora infestans was “L (50% or less control value)”. For the same compound, the “Test A control value” in the test with Magnaporthe grisea is on record as “H (more than 50% control value)”. In addition, the “Test H control value” in test [2] is “H (more than 50% control value)”. The “Test E control value” in the test with Puccinia recondita was “H (more than 50% control value)”.
Consider `CC#CCOc1cc(F)c(-c2c(CCC)cc(Br)c(=O)n2CC)c(F)c1` [compound 462], for which the “Test G control value” with Plasmopara viticola was “L (50% or less control value)”. For the same compound, in the test with Botrytis cinerea, the “Test B control value” was “H (more than 50% control value)”. Also, in the test with Alternaia brassicicola, the “Test C control value” was “H (more than 50% control value)”. Further, the “Test D control value” in test [1] is “L (50% or less control value)”. For the same compound, the “Test F control value” in the test with Phytophthora infestans is recorded as “H (more than 50% control value)”. In the test with Magnaporthe grisea, the “Test A control value” is listed as “L (50% or less control value)”. In addition, the “Test H control value” in test [2] is listed as “H (more than 50% control value)”. The “Test E control value” in the test on Puccinia recondita is reported as “H (more than 50% control value)”.
